One data set concerns the target T1, CYP3A4 (Homo sapiens, UniProt P08684).
T1 construct: host or cells: insect cells (membranes)
Format: in vitro ADME. The conditions noted are these: 1 μM, pH 7.4. The protocol:
(§1) Relative CYP activities were determined from the ratio of the depletion rate constant for each isoform relative to that for CYP3A4. […] Eight 100 μL aliquots each were removed over a period of 70 to 90 minutes and added to 100 μL of a 0.1 μM solution of an internal standard in methanol to quench the enzymatic reaction. The samples were filtered through a high protein-binding capacity filter membrane in a 96-well format. The filtrates were evaporated in a vacuum centrifuge to near dryness, diluted with 125 μL of water, and a 99 μL aliquot was analyzed by reversed phase chromatography/mass spectrometry using selected reaction monitoring. Rate constants were determined from the semi-logarithmic plots of the time versus ratio of the area under the peak for specific transitions of the various substrates and the internal standard. The intrinsic clearance isotope effect was determined from the ratio of the rate constants for the protio- and respective deuterio- forms.

The target of the next data set is T2, CYP1A2 (Homo sapiens, UniProt P05177).
T2 construct: host or cells: insect cells (membranes)
T2 sequence (P05177 2-516 limits assumed): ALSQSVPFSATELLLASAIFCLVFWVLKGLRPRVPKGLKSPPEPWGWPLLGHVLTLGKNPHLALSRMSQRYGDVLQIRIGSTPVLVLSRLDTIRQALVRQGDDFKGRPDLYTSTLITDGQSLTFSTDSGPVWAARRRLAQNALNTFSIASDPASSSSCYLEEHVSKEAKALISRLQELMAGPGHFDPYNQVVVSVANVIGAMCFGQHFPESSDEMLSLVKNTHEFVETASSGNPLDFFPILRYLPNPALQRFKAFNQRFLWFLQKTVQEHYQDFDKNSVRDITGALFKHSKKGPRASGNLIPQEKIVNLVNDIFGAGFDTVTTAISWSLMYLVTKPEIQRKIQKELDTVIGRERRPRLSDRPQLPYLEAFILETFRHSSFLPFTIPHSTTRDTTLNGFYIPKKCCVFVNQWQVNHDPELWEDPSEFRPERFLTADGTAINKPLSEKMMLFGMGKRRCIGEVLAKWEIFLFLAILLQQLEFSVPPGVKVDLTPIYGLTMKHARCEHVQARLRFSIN
Nature of the data set: Substrate depletion with recombinant CYP1A2. Format: in vitro ADME. The conditions noted are these: for kobs: recombinant CYP1A2, substrate depletion at 1.0 μM, 10 pmol/mL rCYP, 37 °C. As to the method: as §1

In the next data set the target is T3, CYP2C9 (Homo sapiens, UniProt P11712).
T3 construct: host or cells: insect cells (membranes)
T3 sequence (P11712 whole entry): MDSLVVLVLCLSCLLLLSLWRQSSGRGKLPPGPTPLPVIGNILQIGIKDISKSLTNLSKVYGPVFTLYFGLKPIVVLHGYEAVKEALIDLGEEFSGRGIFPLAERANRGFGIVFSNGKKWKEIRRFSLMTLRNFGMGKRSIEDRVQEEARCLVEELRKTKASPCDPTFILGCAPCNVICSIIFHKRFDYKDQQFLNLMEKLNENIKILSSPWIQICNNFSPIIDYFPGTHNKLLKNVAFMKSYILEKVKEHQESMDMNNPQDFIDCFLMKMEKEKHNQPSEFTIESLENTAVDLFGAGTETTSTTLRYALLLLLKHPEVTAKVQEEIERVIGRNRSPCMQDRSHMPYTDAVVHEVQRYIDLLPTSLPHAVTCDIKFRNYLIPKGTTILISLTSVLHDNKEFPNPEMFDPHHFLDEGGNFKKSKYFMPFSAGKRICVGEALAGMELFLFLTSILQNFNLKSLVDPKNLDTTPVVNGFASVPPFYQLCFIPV
Description: Substrate depletion with recombinant CYP2C9. It is filed as in vitro ADME. As to the method:
as §1

For a further data set, the target named is T4, CYP2C19 (Homo sapiens, UniProt P33261).
T4 construct: host or cells: insect cells (membranes)
T4 sequence (P33261 whole entry): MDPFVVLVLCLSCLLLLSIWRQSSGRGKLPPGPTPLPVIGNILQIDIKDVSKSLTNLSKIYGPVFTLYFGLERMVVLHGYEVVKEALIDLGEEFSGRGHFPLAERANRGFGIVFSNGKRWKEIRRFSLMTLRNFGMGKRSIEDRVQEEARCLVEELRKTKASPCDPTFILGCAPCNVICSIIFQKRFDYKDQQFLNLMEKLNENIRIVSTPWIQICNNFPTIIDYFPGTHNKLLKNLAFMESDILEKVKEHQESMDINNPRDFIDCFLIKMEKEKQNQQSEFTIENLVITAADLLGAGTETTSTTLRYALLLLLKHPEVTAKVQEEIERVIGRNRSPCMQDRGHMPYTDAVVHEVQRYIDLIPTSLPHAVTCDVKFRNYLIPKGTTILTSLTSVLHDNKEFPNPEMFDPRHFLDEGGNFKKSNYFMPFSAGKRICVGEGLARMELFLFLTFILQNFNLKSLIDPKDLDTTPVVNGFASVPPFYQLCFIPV
Description: Substrate depletion with recombinant CYP2C19. It is filed as in vitro ADME. The conditions noted are these: for kobs: recombinant CYP2C19, substrate depletion at 1.0 μM, 10 pmol/mL rCYP, 37 °C. The protocol:
as §1

The next data set deals with T5, CYP2D6 (Homo sapiens, UniProt P10635).
T5 construct: host or cells: insect cells (membranes)
T5 sequence (P10635 whole entry): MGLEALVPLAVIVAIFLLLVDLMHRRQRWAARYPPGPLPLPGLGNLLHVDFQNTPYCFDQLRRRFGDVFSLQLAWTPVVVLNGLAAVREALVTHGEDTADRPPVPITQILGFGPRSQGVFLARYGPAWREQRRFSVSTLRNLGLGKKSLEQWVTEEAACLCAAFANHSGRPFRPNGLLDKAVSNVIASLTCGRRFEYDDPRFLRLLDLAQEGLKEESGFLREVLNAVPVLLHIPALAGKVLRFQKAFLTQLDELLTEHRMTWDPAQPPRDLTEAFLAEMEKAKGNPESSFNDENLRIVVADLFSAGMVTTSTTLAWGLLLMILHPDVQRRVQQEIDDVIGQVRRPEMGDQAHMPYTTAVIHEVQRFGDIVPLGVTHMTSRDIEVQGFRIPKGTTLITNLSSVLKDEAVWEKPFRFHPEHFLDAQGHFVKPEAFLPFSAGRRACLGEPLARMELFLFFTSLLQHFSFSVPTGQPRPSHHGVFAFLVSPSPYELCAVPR
Nature of the data set: Substrate depletion with recombinant CYP2D6. Format: in vitro ADME. As to the method:
as §1

The target in a further data set is T6, CYP2C8 (Homo sapiens, UniProt P10632).
T6 construct: host or cells: insect cells (membranes)
T6 sequence (P10632 1-490): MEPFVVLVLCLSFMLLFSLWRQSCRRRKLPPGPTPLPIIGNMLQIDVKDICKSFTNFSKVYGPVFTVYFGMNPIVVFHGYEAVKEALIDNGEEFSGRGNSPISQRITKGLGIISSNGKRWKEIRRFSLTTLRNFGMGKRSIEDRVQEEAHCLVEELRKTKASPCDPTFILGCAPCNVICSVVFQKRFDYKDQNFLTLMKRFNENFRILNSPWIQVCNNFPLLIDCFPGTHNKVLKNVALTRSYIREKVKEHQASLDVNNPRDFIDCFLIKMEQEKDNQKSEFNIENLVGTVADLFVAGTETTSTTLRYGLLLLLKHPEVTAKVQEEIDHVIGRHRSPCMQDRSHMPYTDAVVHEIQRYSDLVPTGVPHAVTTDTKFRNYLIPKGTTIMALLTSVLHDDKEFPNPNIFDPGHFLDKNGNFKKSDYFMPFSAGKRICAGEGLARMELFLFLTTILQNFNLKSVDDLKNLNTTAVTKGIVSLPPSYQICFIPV
Description: Substrate depletion with recombinant CYP2C8. Format: in vitro ADME. The conditions noted are these: for As % of CYP3A4: recombinant CYP2C8, depletion rate constant relative to CYP3A4. As to the method: as §1

Data set [1] is described as follows: Estimation of Km by the substrate depletion method. Format: in vitro ADME. The conditions noted are these: human, pH 7.4. As to the method: as §1

T1 sequence (P08684 2-503 limits assumed): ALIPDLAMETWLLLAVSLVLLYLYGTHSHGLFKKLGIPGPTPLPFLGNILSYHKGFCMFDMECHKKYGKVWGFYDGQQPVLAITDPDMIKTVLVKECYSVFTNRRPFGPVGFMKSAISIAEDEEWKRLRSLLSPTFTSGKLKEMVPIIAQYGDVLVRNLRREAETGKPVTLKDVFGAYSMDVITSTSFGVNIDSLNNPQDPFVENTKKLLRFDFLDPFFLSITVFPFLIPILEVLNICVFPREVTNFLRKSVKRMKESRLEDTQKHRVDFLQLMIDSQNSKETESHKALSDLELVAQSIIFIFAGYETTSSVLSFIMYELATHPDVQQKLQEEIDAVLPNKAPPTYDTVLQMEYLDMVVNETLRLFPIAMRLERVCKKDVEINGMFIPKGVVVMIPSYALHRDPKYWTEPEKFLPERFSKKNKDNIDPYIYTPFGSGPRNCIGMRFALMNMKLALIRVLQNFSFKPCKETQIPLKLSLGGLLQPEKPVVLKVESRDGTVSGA

`COc1cccc(-n2nnc(C3CC3)c2C(=O)N(C)c2ccc(C#N)cc2)c1` [Compound 2a]: the values for the kobs at CYP3A4, at CYP1A2 and at CYP2C19 were 0.059 min⁻¹, <0.001 min⁻¹ and 0.014 min⁻¹, respectively. Further, the “As % of CYP3A4” value on CYP3A4 (recombinant enzyme) is 100%; at CYP1A2 (recombinant CYP1A2, depletion rate constant relative to CYP3A4), 0%; at CYP2C9 (recombinant CYP2C9, depletion rate constant relative to CYP3A4), 0%; at CYP2C19 (recombinant CYP2C19, depletion rate constant relative to CYP3A4), 24%; on CYP2D6 (recombinant CYP2D6, depletion rate constant relative to CYP3A4) it was 0%; at CYP2C8, 0%. For the same molecule, the Km – broadly, the concentration of substrate that gives half-maximal velocity – in data set [1] was > 5 µM.

Turning to `CCNc1nc2c(c(C(N)=O)n1)CN(C(=O)CCc1ccc(OC(F)(F)F)cc1)CC2` [Compound 1a], the melting point (commonly the temperature of the solid-liquid transition) lay in the range of 132 to 133 °C. Besides, the kobs at CYP1A2 came out at 0.009 min⁻¹. In addition, the kobs on CYP2C9 (recombinant CYP2C9, substrate depletion at 1.0 μM, 10 pmol/mL rCYP, 37 °C) came to 0.050 min⁻¹. In addition, the kobs on CYP2C19 stood at 0.071 min⁻¹. Also, the kobs on CYP2D6 (recombinant CYP2D6, substrate depletion at 1.0 μM, 10 pmol/mL rCYP, 37 °C) was 0.015 min⁻¹. Further, the “As % of CYP3A4” value at CYP2C8 is reported as 0%. For the same molecule, the kobs at CYP2C8 (recombinant CYP2C8, substrate depletion at 1.0 μM, 10 pmol/mL rCYP, 37 °C) came to 0.001 min⁻¹. Moreover, the Km in data set [1] was > 5 µM.
